Experiments:
[1] = tested on: female Syrian golden hamsters; experiment: post-coital/post-implantation antifertility activity, subcutaneous, pregnant hamsters; assay type: in vivo; conditions: days 4-8 of pregnancy; for activity according to the criteria (reduction of live fetuses in at least 60% of the treated animals): 10 mg/kg s.c. daily for 5 days, hamsters; for ED50: Mesocricetus auratus, sc, 120 h, s.c. hamsters, daily for 5 days, sesame oil, read-out: ED50 (100% activity, absence of live fetuses, in 50% of the animals)
Description: (§1) Representative experiments for assessing antifertility activity were carried out with female Syrian golden hamsters weighing 100 to 130 g. The animals were mated and the presence of sperm in the vagina was taken as evidence of mating. The day sperm was detected and considered day one of pregnancy, since in our laboratories and those of other investigators 90 to 100% of animals that mate as evidenced by vaginal sperm are pregnant.
(§2) Pregnancy was later confirmed at the time of autopsy by presence of fetuses or implantation sites in the uterus.
(§3) Even if an animal aborts the fetus, implantation scars still remain as evidence that the animal has been pregnant.
The animals were autopsied on day 14 of pregnancy and the uteri were examined for evidence of pregnancy (implantation sites, fetal resorptions or live fetuses), hemorrage, and evidence of abnormalities of the uterus, placenta or fetuses.

hamsters = experiment: antifertility activity, oral route, pregnant hamsters; assay type: in vivo, Syrian golden hamsters; conditions: for reduction of live fetuses: oral dosage of 20 mg/Kg, hamsters
Description: as §1, §2, §3
The animals were autopsied on day 14 of pregnancy and the uteri were examined for evidence of pregnancy (implantation sites, fetal resorptions or live fetuses), hemorrage, and evidence of abnormalities of the uterus, placenta or fetuses. A compound was considered to be active if there was a reduction of live fetuses in at least 60% of the treated animals and the presence of implantation sites proves the animal to have been pregnant. […] The compounds were then studied for dose-activity relationships and the corresponding ED50 values i.e., 100% activity (absence of live fetuses) in 50% of the animals, were also determined. The following table reports the ED50 values of some representative compounds of the invention:
Favorable results were also obtained by administering the compounds of the invention by oral route. The experiments for assessing this property were carried out on hamsters following the same procedure as above, with the obvious exception that the compounds were administered orally instead of subcutaneously.

| SMILES | activity according to the criteria (reduction of live fetuses in at least 60% of the treated animals) [1] | ED50 [1] [mg/kg] | ED50 (hamsters; Mesocricetus auratus, po, 120 h, p.o. hamsters, daily for 5 days, days 4-8 of pregnancy) [mg/kg] | reduction of live fetuses (hamsters) |
| --- | --- | --- | --- | --- |
| COc1cccc(-c2n[nH]c(-c3ccccc3CO)n2)c1 [Example 1, 5-(2-hydroxymethylphenyl)-3-(3-methoxyphenyl)-1H-1,2,4-triazole] | active | 0.08 | 10 | about 60% |
| COc1cccc(-c2nc(-c3ccccc3C=O)n[nH]2)c1 [Example 3, 2-[5-(3-methoxyphenyl)-1H-1,2,4-triazol-3-yl]benzaldehyde] | active | 0.1 |  | about 60% |

— patent publication US4409388A, “1,2,4-Triazole derivatives, and their use as antifertility agents” (Gruppo Lepetit S.p.A., priority 1978, dated 1983)
